Where a SMILES comes first, the peptide text is derived from it.

This passage reports IC50 results from publication PMC8138313, “Identification, Selection and Immune Assessment of Liver Stage CD8 T Cell Epitopes From Plasmodium falciparum” (Frontiers in Immunology, 2021).

Some targets named below: HLA B*4402 (Homo sapiens, UniProt P01889, A223V/A65T/A93T/A95T/D201E/D98Y/E176V/E187L/E204Q/E69K/G107R/H137Y/K202T/L105A/L119I/N104T/N87E/Q56L/Q94N/R106L/R155S/R180D/S101N/S121R/S35A/S48T/T118I/V36M/W191S/Y140D/Y91S); HLA A*0101 (Homo sapiens, UniProt P04439, A114D/A174V/A182V/D101N/D185E/E176A/E190D/L180R/Q94H/R68K/S129P/T187R/V100A/V91M/W191G); HLA A*0301 (Homo sapiens, UniProt P04439); HLA A*0201 (Homo sapiens, UniProt P04439, D140Y/D185E/D98H/E176V/E277Q/G131W/G231S/I119V/I121R/I166T/I218V/L300P/L318F/N151K/N90K/P208A/P217A/Q86G/Q94H/R138H/R169H/T345S); HLA A*2402 (Homo sapiens, UniProt P04439, D101N/D140Y/D185E/E176V/E190D/F33S/G103R/G107R/I119L/I121M/I306V/K335N/L105A/L180Q/L300P/N151K/N90K/Q86E/Q94H/R106L/R138H/R89G/T104I/T345S/V100E/W191G/Y123F).

What all share (experiment): HLA class I binding assay (cell-free competition, fluorescence polarization)

`CC[C@H](C)[C@H](NC(=O)[C@H](CC(C)C)NC(=O)[C@H](CC(=O)O)NC(=O)[C@H](CC(N)=O)NC(=O)[C@H](CCCNC(=N)N)NC(=O)[C@H](CO)NC(=O)[C@@H](NC(=O)[C@H](CCC(=O)O)NC(=O)[C@H](C)N)[C@@H](C)CC)C(=O)O` (H-AEISRNDLI-OH) registered an IC50 on HLA B*4402 of 4.53 µM. This counts as single-digit micromolar. Turning to `C[C@H](N)C(=O)N[C@@H](CO)C(=O)N[C@@H](Cc1ccccc1)C(=O)N[C@@H](CO)C(=O)N[C@@H](C)C(=O)N[C@@H](CO)C(=O)N[C@H](C(=O)NCC(=O)N[C@@H](Cc1ccc(O)cc1)C(=O)O)[C@@H](C)O` (H-ASFSASTGY-OH), the IC50 was > 1000 µM at HLA A*0101, 2.37 µM on HLA A*0301 and 31.7 µM at HLA B*4402. `CC(C)[C@H](NC(=O)[C@H](CCC(=O)O)NC(=O)[C@H](Cc1ccccc1)NC(=O)[C@@H](NC(=O)[C@H](CC(=O)O)NC(=O)[C@@H](N)CC(=O)O)[C@@H](C)O)C(=O)N[C@@H](Cc1ccc(O)cc1)C(=O)N[C@@H](CO)C(=O)N[C@@H](CCC(=O)O)C(=O)N[C@@H](Cc1ccc(O)cc1)C(=O)O` (H-DDTFEVYSEY-OH; N-terminus assumed): the 50% inhibitory concentration (IC50) at HLA A*0101 and on HLA B*4402 was > 1000 µM throughout.

As for `CC[C@H](C)[C@H](NC(=O)[C@H](CCC(N)=O)NC(=O)[C@@H](NC(=O)[C@H](C)NC(=O)[C@H](CCCCN)NC(=O)[C@H](CC(C)C)NC(=O)[C@H](CC(N)=O)NC(=O)[C@H](CCC(=O)O)NC(=O)[C@@H](N)CC(=O)O)[C@@H](C)CC)C(=O)O` (H-DENLKAIQI-OH), at HLA B*4402, the IC50 worked out at 91.3 µM. Turning to `CC(C)C[C@H](NC(=O)[C@H](CC(N)=O)NC(=O)[C@H](CCC(=O)O)NC(=O)[C@@H](N)CCC(=O)O)C(=O)N[C@@H](Cc1ccccc1)C(=O)N[C@@H](CCC(=O)O)C(=O)N[C@@H](Cc1c[nH]c2ccccc12)C(=O)N[C@@H](CO)C(=O)N[C@@H](CCCCN)C(=O)N[C@H](C(=O)O)[C@@H](C)O` (H-EENLFEWSKT-OH; N-terminus assumed), at HLA B*4402, the IC50 is > 1000 µM.

For `CC[C@H](C)[C@H](NC(=O)CNC(=O)[C@H](CO)NC(=O)[C@H](CC(N)=O)NC(=O)[C@H](CC(=O)O)NC(=O)[C@@H](N)Cc1ccccc1)C(=O)N[C@@H](CO)C(=O)N[C@@H](CC(C)C)C(=O)N[C@@H](CC(C)C)C(=O)O` (H-FDNSGISLL-OH), the IC50 at HLA A*0201 was 229 µM; on HLA B*4402, > 1000 µM. Turning to `CC[C@H](C)[C@H](N)C(=O)N[C@@H](CCC(=O)O)C(=O)N[C@@H](CC(N)=O)C(=O)N[C@@H](CC(N)=O)C(=O)N[C@@H](CC(C)C)C(=O)N[C@@H](Cc1ccc(O)cc1)C(=O)N[C@@H](CCC(=O)O)C(=O)N[C@@H](CCCNC(=N)N)C(=O)N[C@@H](CC(C)C)C(=O)O` (H-IENNLYERL-OH), the IC50 at HLA B*4402 was found to be 60.1 µM. Same read-out and setting: with `CC[C@H](C)[C@H](NC(=O)[C@H](CCC(=O)O)NC(=O)[C@H](CCCCN)NC(=O)[C@H](CCC(=O)O)NC(=O)[C@H](CCC(=O)O)NC(=O)[C@@H](N)CCCCN)C(=O)N[C@@H](CC(N)=O)C(=O)N[C@@H](CC(=O)O)C(=O)N[C@@H](CCC(=O)O)C(=O)N[C@@H](Cc1ccc(O)cc1)C(=O)O` (H-KEEKEINDEY-OH; N-terminus assumed) the figure was > 1000 µM.

`CC[C@H](C)[C@H](NC(=O)[C@@H](NC(=O)[C@@H](NC(=O)[C@H](Cc1c[nH]cn1)NC(=O)[C@H](CC(=O)O)NC(=O)[C@H](CCCCN)NC(=O)[C@H](CCCCN)NC(=O)[C@H](CCC(=O)O)NC(=O)[C@@H](N)CCCCN)[C@@H](C)CC)C(C)C)C(=O)O` (H-KEKKDHIVI-OH): the IC50 on HLA B*4402 is 64.6 µM.

As to `CC[C@H](C)[C@H](NC(=O)[C@H](Cc1ccccc1)NC(=O)[C@H](CCC(=O)O)NC(=O)[C@@H](NC(=O)[C@H](CC(=O)O)NC(=O)[C@H](CCC(=O)O)NC(=O)[C@H](CC(N)=O)NC(=O)[C@H](CCC(=O)O)NC(=O)[C@@H](N)CCSC)C(C)C)C(=O)O` (H-MENEDVEFI-OH), the IC50 at HLA B*4402 is 36.9 µM. This IC50 is about 1.8-fold lower than that of the compound before. `CC[C@H](C)[C@H](NC(=O)[C@H](CCC(=O)O)NC(=O)[C@H](CCC(=O)O)NC(=O)[C@@H](N)CC(N)=O)C(=O)N[C@H](C(=O)N[C@@H](CC(=O)O)C(=O)N[C@@H](CC(C)C)C(=O)N[C@@H](CC(C)C)C(=O)N[C@@H](CC(N)=O)C(=O)N[C@@H](CC(C)C)C(=O)O)[C@@H](C)CC` (H-NEEIIDLLNL-OH) registered an IC50 at HLA B*4402 of 433 µM.

On HLA B*4402, `C[C@@H](O)[C@H](NC(=O)[C@H](CC(N)=O)NC(=O)[C@H](CC(N)=O)NC(=O)[C@H](CCC(=O)O)NC(=O)[C@@H](N)CC(N)=O)C(=O)N[C@H](C(=O)N[C@@H](Cc1ccc(O)cc1)C(=O)N[C@@H](CCC(N)=O)C(=O)N[C@@H](Cc1ccc(O)cc1)C(=O)O)[C@@H](C)O` (H-NENNTTYQY-OH) registered an IC50 of 18.4 µM. This IC50 lies about 24-fold lower than the previous one.

Turning to `CC(C)C[C@H](NC(=O)[C@H](CC(N)=O)NC(=O)[C@H](CC(C)C)NC(=O)[C@@H](N)CCCNC(=N)N)C(=O)N[C@@H](Cc1ccccc1)C(=O)N[C@@H](CS)C(=O)N[C@@H](Cc1ccccc1)C(=O)N[C@@H](CO)C(=O)N[C@@H](Cc1ccccc1)C(=O)O` (H-RLNLFCFSF-OH), the IC50 on HLA A*2402 is 11 µM; at HLA B*4402, > 1000 µM. On to `CC(C)C[C@H](NC(=O)[C@H](Cc1ccccc1)NC(=O)[C@H](CO)NC(=O)[C@H](Cc1ccccc1)NC(=O)[C@H](CS)NC(=O)[C@H](Cc1ccccc1)NC(=O)[C@H](CC(C)C)NC(=O)[C@H](CC(N)=O)NC(=O)[C@H](CC(C)C)NC(=O)[C@@H](N)CCCNC(=N)N)C(=O)O` (H-RLNLFCFSFL-OH), for which the IC50 is 161 µM at HLA A*0201, 6.12 µM on HLA A*0301 and 421 µM at HLA B*4402. `C[C@@H](O)[C@H](NC(=O)[C@H](CC(N)=O)NC(=O)[C@H](Cc1ccc(O)cc1)NC(=O)[C@@H](NC(=O)[C@H](CO)NC(=O)[C@@H](NC(=O)[C@H](CO)NC(=O)[C@H](CCC(=O)O)NC(=O)[C@@H](N)CO)[C@@H](C)O)[C@@H](C)O)C(=O)O` (H-SESTSTYNT-OH) returned a 50% inhibitory concentration (IC50) on HLA B*4402 of 103 µM. Still for that read-out and setting: with `CC[C@H](C)[C@H](NC(=O)[C@H](CC(C)C)NC(=O)[C@@H](NC(=O)[C@@H](N)CO)[C@@H](C)CC)C(=O)N[C@@H](CO)C(=O)N[C@@H](CCCNC(=N)N)C(=O)N[C@@H](CC(C)C)C(=O)N[C@H](C(=O)N[C@@H](CC(C)C)C(=O)O)[C@@H](C)O` (H-SILISRLTL-OH; N-terminus assumed) the figure was > 1000 µM; with `CC(C)C[C@H](NC(=O)[C@H](Cc1ccccc1)NC(=O)[C@@H]1CCCN1C(=O)[C@H](Cc1c[nH]cn1)NC(=O)[C@H](CCCCN)NC(=O)[C@@H](N)CO)C(=O)N[C@@H](CCCCN)C(=O)N[C@@H](CO)C(=O)NCC(=O)N[C@@H](Cc1ccccc1)C(=O)O` (H-SKHPFLKSGF-OH; N-terminus assumed), > 1000 µM. On the same count and under the same terms, as for `CSCC[C@H](NC(=O)[C@H](CC(N)=O)NC(=O)[C@H](CCCCN)NC(=O)[C@H](CC(N)=O)NC(=O)[C@H](CCCCN)NC(=O)[C@H](Cc1ccccc1)NC(=O)[C@H](Cc1ccc(O)cc1)NC(=O)[C@H](CCC(=O)O)NC(=O)[C@@H](N)[C@@H](C)O)C(=O)O` (H-TEYFKNKNM-OH), the figure is 31.4 µM; as for `CC[C@H](C)[C@H](NC(=O)[C@H](CCCCN)NC(=O)CNC(=O)CNC(=O)[C@H](CC(C)C)NC(=O)[C@H](CCC(N)=O)NC(=O)[C@H](CO)NC(=O)[C@H](CCC(=O)O)NC(=O)[C@@H](N)Cc1ccc(O)cc1)C(=O)O` (H-YESQLGGKI-OH), 66.3 µM.
